Test results taken from US8829007B2 (priority 2009, dated 2014).
Where two headings read alike, the source gives them in different places.

Assays:
[1] = system: A/PR/8/34 influenza virus; assay: microbe, parasite or virus in culture; assay type: cell-based
[2] = system: influenza A virus (A/PR/8/34); assay: microbe, parasite or virus in culture; assay type: cell-based
[3] = Influenza A virus, PR/8, MDCK, mean all, A/PR/8/34 influenza virus in MDCK cells, bDNA assay, read-out: EC50
[4] = Influenza A virus, PR/8, MDCK, mean all, A/PR/8/34 infected MDCK cells, CPE assay, read-out: IC50
[5] = Influenza A virus, PR/8, mean all, A/PR/8/34 influenza virus replication, bDNA, read-out: EC50
[6] = Influenza A virus, PR/8, MDCK, mean all, A/PR/8/34 infected MDCK cells, cell protection (CPE), read-out: IC50
[7] = Influenza A virus, PR/8, MDCK, MDCK cells infected with A/PR/8/34, bDNA viral RNA, read-out: EC50 (mean all)
[8] = Influenza A virus, PR/8, MDCK, MDCK cells infected with A/PR/8/34, cell protection (CPE), read-out: IC50 (mean all)

CS(=O)(=O)NC1CCCC(Nc2nc(-c3c[nH]c4ncc(Cl)cc34)ncc2F)C1 (stereo not drawn) [Compound 454, N-[3-[[2-(5-chloro-1H-pyrrolo[2,3-b]pyridin-3-yl)-5-fluoro-pyrimidin-4-yl]amino]cyclohexyl]methanesulfonamide]
EC50 [1, 3]: < 5 µM | IC50 [2, 4]: < 5 µM

C[C@]1(C(=O)O)CCCC[C@@H]1Nc1nc(-c2c[nH]c3ncc(Cl)cc23)ncc1F (stereo in doubt) [Compound 643, Trans-2-[[2-(5-chloro-1H-pyrrolo[2,3-b]pyridin-3-yl)-5-fluoro-pyrimidin-4-yl]amino]-1-methyl-cyclohexanecarboxylic acid]
EC50 ([1]; Influenza A virus, PR/8, MDCK, bDNA assay, A/PR/8/34 influenza virus replication in MDCK cells, class symbols, read-out: EC50 (mean all)): < 5 µM | IC50 ([2]; Influenza A virus, PR/8, MDCK, CPE assay, A/PR/8/34 infected MDCK cells, class symbols, read-out: IC50 (mean all)): < 5 µM

C[C@@]1(C(=O)O)CCCC(Nc2nc(-c3c[nH]c4ncc(Cl)cc34)ncc2F)C1 (stereo partly drawn) [Compound 826]
EC50 [1, 5]: < 5 µM | IC50 [2, 6]: < 5 µM

CO[C@@H]1CCC[C@H](Nc2nc(-c3c[nH]c4ncc(Cl)cc34)ncc2F)[C@H]1O [Compound 831, (1R,2S,6R)-2-(2-(5-chloro-1H-pyrrolo[2,3-b]pyridin-3-yl)-5-fluoropyrimidin-4-ylamino)-6-methoxycyclohexanol]
EC50 [1, 5]: < 5 µM | IC50 [2, 6]: < 5 µM

CCS(=O)(=O)N1CCC[C@H](Nc2nc(-c3c[nH]c4ncc(Cl)cc34)ncc2F)C1 [Compound 393, (S)-2-(5-chloro-1H-pyrrolo[2,3-b]pyridin-3-yl)-N-(1-(ethylsulfonyl)piperidin-3-yl)-5-fluoropyrimidin-4-amine]
EC50 [1, 3]: < 5 µM | IC50 [2, 4]: < 5 µM

O[C@@H]1CCCC[C@@H]1Nc1nc(-c2c[nH]c3ncccc23)ncc1F (relative stereo) [Compound 277, Cis-2-[[5-fluoro-2-(1H-pyrrolo[2,3-b]pyridin-3-yl)pyrimidin-4-yl]amino]cyclohexanol]
EC50 [1, 7]: < 5 µM | IC50 [2, 8]: < 5 µM

C#CCOC(=O)N1CCC[C@H](CNc2nc(-c3c[nH]c4ncc(Cl)cc34)ncc2F)C1 [Compound 122, (R)-prop-2-ynyl 3-((2-(5-chloro-1H-pyrrolo[2,3-b]pyridin-3-yl)-5-fluoropyrimidin-4-ylamino)methyl)piperidine-1-carboxylate]
EC50 [1, 7]: < 5 µM | IC50 [2, 8]: < 5 µM

CC(=O)N[C@H]1CCC[C@H](Nc2nc(-c3c[nH]c4ncc(Cl)cc34)ncc2F)C1.CC(N)=O (relative stereo) [Compound 457, N-[trans-3-[[2-(5-chloro-1H-pyrrolo[2,3-b]pyridin-3-yl)-5-fluoro-pyrimidin-4-yl]amino]cyclohexyl]acetamide acetamide]
EC50 [1, 3]: < 5 µM | IC50 [2, 4]: < 5 µM

C#CC1(O)CCCC(Nc2nc(-c3c[nH]c4ncc(Cl)cc34)ncc2F)C1 (stereo not drawn) [Compound 617]
EC50 ([1]; bDNA assay, A/PR/8/34 influenza virus replication in MDCK cells, class symbols, read-out: EC50 (mean all)): < 5 µM | IC50 ([2]; CPE assay, A/PR/8/34 infected MDCK cells, class symbols, read-out: IC50 (mean all)): < 5 µM

O=C(O)CC1(CC(=O)N2CCC[C@H](CNc3nc(-c4c[nH]c5ncc(Cl)cc45)ncc3F)C2)CCCC1 [Compound 81, (R)-2-(1-(2-(3-((2-(5-chloro-1H-pyrrolo[2,3-b]pyridin-3-yl)-5-fluoropyrimidin-4-ylamino)methyl)piperidin-1-yl)-2-oxoethyl)cyclopentyl)ethanoic acid]
EC50 [1, 7]: < 5 µM | IC50 [2, 8]: < 5 µM

O=C(O)[C@@H]1CCCC[C@@H]1Nc1nc(-c2c[nH]c3ncc(Cl)cc23)ncc1F (relative stereo) [Compound 559, Cis-2-(2-(5-chloro-1H-pyrrolo[2,3-b]pyridin-3-yl)-5-fluoropyrimidin-4-ylamino)cyclohexanecarboxylic acid]
EC50 ([1]; Influenza A virus, PR/8, MDCK, MDCK cells infected with A/PR/8/34, replication of influenza virus (viral RNA, bDNA), class symbols, read-out: EC50 (mean all)): < 5 µM | IC50 ([2]; Influenza A virus, PR/8, MDCK, MDCK cells infected with A/PR/8/34, survival of infected cells, class symbols, read-out: IC50 (mean all)): < 5 µM

C#CCOC(=O)NC1CCCC(Nc2nc(-c3c[nH]c4ncc(Cl)cc34)ncc2F)C1 (stereo not drawn) [Compound 702]
EC50 ([1]; mean all, bDNA viral RNA in MDCK cells infected with A/PR/8/34, read-out: EC50): < 5 µM | IC50 ([2]; mean all, MDCK cells infected with A/PR/8/34, cell protection (CPE), read-out: IC50): < 5 µM

O=C(Oc1ccccc1Cl)N1CCC[C@H](CNc2nc(-c3c[nH]c4ncc(Cl)cc34)ncc2F)C1 [Compound 70, (R)-2-chlorophenyl 3-((2-(5-chloro-1H-pyrrolo[2,3-b]pyridin-3-yl)-5-fluoropyrimidin-4-ylamino)methyl)piperidine-1-carboxylate]
EC50 ([1]; Influenza A virus, PR/8, MDCK, read-out: EC50 (mean all)): < 5 µM | IC50 ([2]; Influenza A virus, PR/8, MDCK, read-out: IC50 (mean all)): < 5 µM

O=C(C1CCCCC1)N1CCC[C@H](CNc2nc(-c3c[nH]c4ncc(Cl)cc34)ncc2F)C1 [Compound 95, (R)-(3-((2-(5-chloro-1H-pyrrolo[2,3-b]pyridin-3-yl)-5-fluoropyrimidin-4-ylamino)methyl)piperidin-1-yl)(cyclohexyl)methanone]
EC50 [1, 7]: < 5 µM | IC50 [2, 8]: < 5 µM

O=C(c1ccc(F)cc1F)N1CCC[C@H](CNc2nc(-c3c[nH]c4ncc(Cl)cc34)ncc2F)C1 [Compound 152, (R)-(3-((2-(5-chloro-1H-pyrrolo[2,3-b]pyridin-3-yl)-5-fluoropyrimidin-4-ylamino)methyl)piperidin-1-yl)(2,4-difluorophenyl)methanone]
EC50 [1, 7]: < 5 µM | IC50 [2, 8]: < 5 µM
